Data on one molecule can be found in PMC5218480 (PLoS ONE, 2017).

The test deals with MV-4-11 cells. The test can be described thus: Gene expression microarray analysis (Affymetrix PrimeView) and GSEA. In kind it is cell-based, human. The arrangement: RFU PODN (11730768_x_at) / Fold change /veh PODN (11730768_x_at) / RFU LINC00158 (11744669_a_at) / Fold change /veh LINC00158 (11744669_a_at) / RFU DUSP10 (11751237_a_at) / Fold change /veh DUSP10 (11751237_a_at) / RFU ID3 (11757404_x_at) / Fold change /veh ID3 (11757404_x_at) / RFU PLEKHG5 (11737974_s_at) / Fold change /veh PLEKHG5 (11737974_s_at) / RFU LRRC4B (11730491_at) / Fold change /veh LRRC4B (11730491_at) / RFU GIMAP4 (11747438_a_at) / Fold change /veh GIMAP4 (11747438_a_at) / RFU KRT8 (11758183_x_at) / Fold change /veh KRT8 (11758183_x_at) / RFU CNN1 (11734310_a_at) / Fold change /veh CNN1 (11734310_a_at) / RFU VPS37D (11726825_at) / Fold change /veh VPS37D (11726825_at) / RFU C10orf10 (11716522_x_at) / Fold change /veh C10orf10 (11716522_x_at) / RFU KIR2DL2 /// KIR2DL4 /// KIR2DL5A /// KIR2DL5B /// KIR2DS1 /// KIR2DS2 /// KIR2DS3 /// KIR2DS4 /// KIR3DL3 /// KIR3DL3 /// KIR3DS1 (11738374_at) / Fold change /veh KIR2DL2 /// KIR2DL4 /// KIR2DL5A /// KIR2DL5B /// KIR2DS1 /// KIR2DS2 /// KIR2DS3 /// KIR2DS4 /// KIR3DL3 /// KIR3DL3 /// KIR3DS1 (11738374_at) / RFU C1QL1 (11718748_at) / Fold change /veh C1QL1 (11718748_at) / RFU TMPRSS4 (11747572_a_at) / Fold change /veh TMPRSS4 (11747572_a_at) / RFU HAMP (11756126_x_at) / Fold change /veh HAMP (11756126_x_at) / RFU RNFT2 (11725882_a_at) / Fold change /veh RNFT2 (11725882_a_at) / RFU NR4A2 (11747474_a_at) / Fold change /veh NR4A2 (11747474_a_at) / RFU ABCC12 (11746883_a_at) / Fold change /veh ABCC12 (11746883_a_at) / RFU TMEM136 (11760407_x_at) / Fold change /veh TMEM136 (11760407_x_at) / RFU CLDN22 /// WWC2 (11732394_at) / Fold change /veh CLDN22 /// WWC2 (11732394_at) / RFU HLA-DPB1 (11760878_x_at) / Fold change /veh HLA-DPB1 (11760878_x_at) / RFU SPINT1 (11716480_a_at) / Fold change /veh SPINT1 (11716480_a_at) / RFU GAP43 (11754022_s_at) / Fold change /veh GAP43 (11754022_s_at) / RFU A4GNT (11735810_at) / Fold change /veh A4GNT (11735810_at) / RFU PRB3 (11715151_x_at) / Fold change /veh PRB3 (11715151_x_at) / RFU TUBB4B (11761932_at) / Fold change /veh TUBB4B (11761932_at) / RFU CAPN14 (11732068_a_at) / Fold change /veh CAPN14 (11732068_a_at) / RFU TMCC2 (11721928_a_at) / Fold change /veh TMCC2 (11721928_a_at) / RFU IRGQ (11745062_a_at) / Fold change /veh IRGQ (11745062_a_at) / RFU FAM174B (11720279_a_at) / Fold change /veh FAM174B (11720279_a_at) / RFU TMPRSS4 (11748680_a_at) / Fold change /veh TMPRSS4 (11748680_a_at) / RFU FAM212B (11763350_a_at) / Fold change /veh FAM212B (11763350_a_at) / RFU PLEKHG5 (11743358_a_at) / Fold change /veh PLEKHG5 (11743358_a_at) / RFU ZSCAN30 (11745921_a_at) / Fold change /veh ZSCAN30 (11745921_a_at) / RFU CMKLR1 (11741424_a_at) / Fold change /veh CMKLR1 (11741424_a_at) / RFU LOC101060620 /// MAPK8IP1 (11723275_at) / Fold change /veh LOC101060620 /// MAPK8IP1 (11723275_at) / RFU SPTSSB (11747773_x_at) / Fold change /veh SPTSSB (11747773_x_at) / RFU PRSS12 (11739890_at) / Fold change /veh PRSS12 (11739890_at) / RFU BIN1 (11741810_x_at) / Fold change /veh BIN1 (11741810_x_at) / RFU WNT11 (11732464_a_at) / Fold change /veh WNT11 (11732464_a_at) / RFU C10orf10 (11716521_a_at) / Fold change /veh C10orf10 (11716521_a_at) / RFU C5orf56 (11738089_at) / Fold change /veh C5orf56 (11738089_at) / RFU CYB561 (11721691_x_at) / Fold change /veh CYB561 (11721691_x_at) / RFU ANKRD19P (11752326_a_at) / Fold change /veh ANKRD19P (11752326_a_at) / RFU OR2T12 /// OR2T33 /// OR2T8 (11738714_s_at) / Fold change /veh OR2T12 /// OR2T33 /// OR2T8 (11738714_s_at) / RFU VCAN (11748164_a_at) / Fold change /veh VCAN (11748164_a_at) / RFU JSRP1 (11732532_at) / Fold change /veh JSRP1 (11732532_at) / RFU KRTAP10-11 (11738290_x_at) / Fold change /veh KRTAP10-11 (11738290_x_at) / RFU MYO3A (11730013_a_at) / Fold change /veh MYO3A (11730013_a_at) / RFU EBF3 (11725865_a_at) / Fold change /veh EBF3 (11725865_a_at) / RFU CAMK2N1 (11719241_x_at) / Fold change /veh CAMK2N1 (11719241_x_at) / RFU C5orf56 (11738088_a_at) / Fold change /veh C5orf56 (11738088_a_at) / RFU OLFML3 (11715873_a_at) / Fold change /veh OLFML3 (11715873_a_at) / RFU LOC100653217 /// NTM (11731650_a_at) / Fold change /veh LOC100653217 /// NTM (11731650_a_at) / RFU MAPK11 (11762145_a_at) / Fold change /veh MAPK11 (11762145_a_at) / RFU FIZ1 (11724087_x_at) / Fold change /veh FIZ1 (11724087_x_at) / RFU OASL (11726364_x_at) / Fold change /veh OASL (11726364_x_at) / RFU SOX15 (11748057_x_at) / Fold change /veh SOX15 (11748057_x_at) / RFU CD79A (11719716_a_at) / Fold change /veh CD79A (11719716_a_at) / RFU HIST1H1D (11736915_at) / Fold change /veh HIST1H1D (11736915_at) / RFU CASKIN2 (11723855_a_at) / Fold change /veh CASKIN2 (11723855_a_at) / RFU LOC730098 (11760151_x_at) / Fold change /veh LOC730098 (11760151_x_at) / RFU OR4N2 (11742367_at) / Fold change /veh OR4N2 (11742367_at) / RFU PRRT2 (11749266_a_at) / Fold change /veh PRRT2 (11749266_a_at) / RFU SNX32 (11753110_a_at) / Fold change /veh SNX32 (11753110_a_at) / RFU CDHR5 (11726645_a_at) / Fold change /veh CDHR5 (11726645_a_at) / RFU RCAN1 (11760418_a_at) / Fold change /veh RCAN1 (11760418_a_at) / RFU FAM167A (11723789_a_at) / Fold change /veh FAM167A (11723789_a_at) / RFU FAM26E (11764081_at) / Fold change /veh FAM26E (11764081_at) / RFU ISYNA1 (11749810_s_at) / Fold change /veh ISYNA1 (11749810_s_at) / RFU ACY1 (11761880_at) / Fold change /veh ACY1 (11761880_at) / RFU 11764098_at / Fold change /veh 11764098_at / RFU SAMD14 (11745864_x_at) / Fold change /veh SAMD14 (11745864_x_at) / RFU NPB (11741838_a_at) / Fold change /veh NPB (11741838_a_at) / RFU TMPRSS6 (11731388_a_at) / Fold change /veh TMPRSS6 (11731388_a_at) / RFU KRTAP10-2 (11738614_at) / Fold change /veh KRTAP10-2 (11738614_at) / RFU ARHGAP8 /// PRR5-ARHGAP8 (11727945_x_at) / Fold change /veh ARHGAP8 /// PRR5-ARHGAP8 (11727945_x_at) / RFU KRTAP5-7 /// NADSYN1 (11734609_at) / Fold change /veh KRTAP5-7 /// NADSYN1 (11734609_at) / RFU RASL12 (11751679_a_at) / Fold change /veh RASL12 (11751679_a_at) / RFU CDKN2B (11736163_a_at) / Fold change /veh CDKN2B (11736163_a_at) / RFU PRF1 (11729649_at) / Fold change /veh PRF1 (11729649_at) / RFU, ZNF638 /// ZNF638-IT1 / Fold change vs veh, ZNF638 /// ZNF638-IT1 / RFU, PANK3 / Fold change vs veh, PANK3 / RFU, SH3YL1 / Fold change vs veh, SH3YL1 / RFU, ZEB2 / Fold change vs veh, ZEB2 / RFU, NRIP1 / Fold change vs veh, NRIP1 / RFU, PTTG1IP / Fold change vs veh, PTTG1IP / RFU, CAPN2 / Fold change vs veh, CAPN2 / RFU, MED14 / Fold change vs veh, MED14 / RFU, SNORA58 / Fold change vs veh, SNORA58 / RFU, C1orf63 / Fold change vs veh, C1orf63 / RFU, LRRFIP1 / Fold change vs veh, LRRFIP1 / RFU, NDUFAF7 / Fold change vs veh, NDUFAF7 / RFU, SLC12A2 / Fold change vs veh, SLC12A2 / RFU, IBTK / Fold change vs veh, IBTK / RFU, ESF1 / Fold change vs veh, ESF1 / Fold change vs veh, TMEM50B / RFU, TAOK1 / Fold change vs veh, TAOK1 / RFU, ACBD3 / Fold change vs veh, ACBD3 / RFU, TMA16 / Fold change vs veh, TMA16 / RFU, RWDD3 / Fold change vs veh, RWDD3 / RFU, BCAT1 / Fold change vs veh, BCAT1 / RFU, EDEM3 / Fold change vs veh, EDEM3 / RFU, TMEM33 / Fold change vs veh, TMEM33 / RFU, WDR75 / Fold change vs veh, WDR75 / RFU, AHCTF1 / Fold change vs veh, AHCTF1 / RFU, TFRC / Fold change vs veh, TFRC / RFU, ZDHHC17 / Fold change vs veh, ZDHHC17 / RFU, NOM1 / Fold change vs veh, NOM1 / RFU, ARL8B / Fold change vs veh, ARL8B / RFU, ZBTB11 / Fold change vs veh, ZBTB11 / RFU, TAMM41 / Fold change vs veh, TAMM41 / RFU, KIAA1704 /// LOC100996395 / Fold change vs veh, KIAA1704 /// LOC100996395 / RFU, ING1 / Fold change vs veh, ING1 / RFU, TRMT61B / Fold change vs veh, TRMT61B / RFU, FUBP3 / Fold change vs veh, FUBP3 / RFU, TP53 / Fold change vs veh, TP53 / RFU, TNKS2 / Fold change vs veh, TNKS2 / RFU, ZFP14 / Fold change vs veh, ZFP14 / RFU, ACTR2 / Fold change vs veh, ACTR2 / RFU, PPP3R1 / Fold change vs veh, PPP3R1 / RFU, PIK3R1 / Fold change vs veh, PIK3R1 / RFU, HNRNPA1 / Fold change vs veh, HNRNPA1 / RFU, RNF170 / Fold change vs veh, RNF170 / RFU, ZNF28 / Fold change vs veh, ZNF28 / RFU, RNGTT / Fold change vs veh, RNGTT / RFU, OGT / Fold change vs veh, OGT / RFU, BRD1 / Fold change vs veh, BRD1 / RFU, MARS / Fold change vs veh, MARS / RFU, ZNF655 / Fold change vs veh, ZNF655 / RFU, FAHD1 / Fold change vs veh, FAHD1 / RFU, BDP1 / Fold change vs veh, BDP1 / RFU, LRRCC1 / Fold change vs veh, LRRCC1 / RFU, ARID1A / Fold change vs veh, ARID1A / RFU, ZNF146 / Fold change vs veh, ZNF146 / RFU, ZNF330 / Fold change vs veh, ZNF330 / RFU, GPN3 / Fold change vs veh, GPN3 / RFU, C9orf123 / Fold change vs veh, C9orf123 / RFU, N4BP2L2 / Fold change vs veh, N4BP2L2 / RFU, ARFIP1 / Fold change vs veh, ARFIP1 / RFU, FAM179B / Fold change vs veh, FAM179B / RFU, BCL10 / Fold change vs veh, BCL10 / RFU, UHRF1BP1L / Fold change vs veh, UHRF1BP1L / RFU, BET1 / Fold change vs veh, BET1 / RFU, CNOT2 / Fold change vs veh, CNOT2 / RFU, ZNF268 / Fold change vs veh, ZNF268 / Fold change vs veh, ZNF507 / RFU, DGCR2 / Fold change vs veh, DGCR2 / RFU, WDSUB1 / Fold change vs veh, WDSUB1 / Fold change vs veh, HSP90B1 /// MIR3652 / RFU, ADSS / Fold change vs veh, ADSS / RFU, GK / Fold change vs veh, GK / RFU, ZNF148 / Fold change vs veh, ZNF148 / RFU, TAF9 / Fold change vs veh, TAF9 / RFU, SLC1A5 / Fold change vs veh, SLC1A5 / RFU, SLMO2 / Fold change vs veh, SLMO2 / RFU, ABCC4 / Fold change vs veh, ABCC4 / RFU, LOC101060439 /// RAP1B / Fold change vs veh, LOC101060439 /// RAP1B / RFU, RFX7 / Fold change vs veh, RFX7 / RFU, GTPBP10 / Fold change vs veh, GTPBP10 / RFU, CNEP1R1 / Fold change vs veh, CNEP1R1 / RFU, BIVM-ERCC5 /// ERCC5 / Fold change vs veh, BIVM-ERCC5 /// ERCC5 / RFU, ILF3 / Fold change vs veh, ILF3 / RFU 11762660_at / Fold change /veh 11762660_at / RFU VCAN (11757783_s_at) / Fold change /veh VCAN (11757783_s_at) / RFU DDX43 (11728927_at) / Fold change /veh DDX43 (11728927_at) / RFU KRT8 (11758188_x_at) / Fold change /veh KRT8 (11758188_x_at) / RFU NKD1 (11759106_at) / Fold change /veh NKD1 (11759106_at) / RFU SRD5A1 (11742802_a_at) / Fold change /veh SRD5A1 (11742802_a_at) / RFU TPSAB1 /// TPSB2 (11721975_s_at) / Fold change /veh TPSAB1 /// TPSB2 (11721975_s_at) / RFU GSTM3 (11746129_a_at) / Fold change /veh GSTM3 (11746129_a_at) / RFU IL23R (11737362_x_at) / Fold change /veh IL23R (11737362_x_at) / RFU TMEM51 (11727254_a_at) / Fold change /veh TMEM51 (11727254_a_at) / RFU PIWIL2 (11732686_x_at) / Fold change /veh PIWIL2 (11732686_x_at) / RFU ORM1 (11744905_x_at) / Fold change /veh ORM1 (11744905_x_at) / RFU CCDC152 (11743942_at) / Fold change /veh CCDC152 (11743942_at) / RFU ECM1 (11717891_a_at) / Fold change /veh ECM1 (11717891_a_at) / RFU IL23R (11748794_a_at) / Fold change /veh IL23R (11748794_a_at) / RFU TNFAIP8L3 (11732012_x_at) / Fold change /veh TNFAIP8L3 (11732012_x_at) / RFU MBOAT4 (11741988_at) / Fold change /veh MBOAT4 (11741988_at) / RFU 11764193_at / Fold change /veh 11764193_at / RFU TMEM53 (11763286_at) / Fold change /veh TMEM53 (11763286_at) / RFU MAGEB2 (11727129_at) / Fold change /veh MAGEB2 (11727129_at) / RFU TMEM200A (11744735_a_at) / Fold change /veh TMEM200A (11744735_a_at) / RFU CCDC152 (11751479_a_at) / Fold change /veh CCDC152 (11751479_a_at) / RFU FAM211A (11726209_a_at) / Fold change /veh FAM211A (11726209_a_at) / RFU RGS16 (11746705_a_at) / Fold change /veh RGS16 (11746705_a_at) / RFU VCAN (11755009_s_at) / Fold change /veh VCAN (11755009_s_at) / RFU RHOB (11743442_s_at) / Fold change /veh RHOB (11743442_s_at) / RFU RGS16 (11720943_a_at) / Fold change /veh RGS16 (11720943_a_at) / RFU RGS16 (11720944_at) / Fold change /veh RGS16 (11720944_at) / RFU, VPS4B / Fold change vs veh, VPS4B / RFU, CREB1 / Fold change vs veh, CREB1 / RFU, DNAJC13 / Fold change vs veh, DNAJC13 / RFU, GNAQ / Fold change vs veh, GNAQ / RFU, CDK5R1 / Fold change vs veh, CDK5R1 / RFU, ZRANB3 / Fold change vs veh, ZRANB3 / RFU, CUL4A / Fold change vs veh, CUL4A / RFU, CCNY / Fold change vs veh, CCNY / RFU, UFL1 / Fold change vs veh, UFL1 / RFU, COG3 / Fold change vs veh, COG3 / RFU, DIAPH2 / Fold change vs veh, DIAPH2 / RFU, SKA2 / Fold change vs veh, SKA2 / RFU, AFF3 / Fold change vs veh, AFF3 / RFU, LMF1 / Fold change vs veh, LMF1 / RFU, IPO11 / Fold change vs veh, IPO11 / RFU, DFFB / Fold change vs veh, DFFB / RFU, FOXP1 / Fold change vs veh, FOXP1 / RFU, CARD8 / Fold change vs veh, CARD8 / RFU, STRN3 / Fold change vs veh, STRN3 / RFU, ADK / Fold change vs veh, ADK / RFU, RASSF2 / Fold change vs veh, RASSF2 / RFU, WIPF1 / Fold change vs veh, WIPF1 / RFU, LARP1B / Fold change vs veh, LARP1B / RFU, RASA1 / Fold change vs veh, RASA1 / RFU, RB1 / Fold change vs veh, RB1 / RFU, PPFIA1 / Fold change vs veh, PPFIA1 / RFU, MAT2A / Fold change vs veh, MAT2A / RFU, CCT5 / Fold change vs veh, CCT5 / RFU, WDR92 / Fold change vs veh, WDR92 / RFU, CUX1 / Fold change vs veh, CUX1 / RFU, TTC7A / Fold change vs veh, TTC7A / RFU, TMEM135 / Fold change vs veh, TMEM135 / RFU, DEPTOR / Fold change vs veh, DEPTOR / RFU, CPM / Fold change vs veh, CPM / RFU, DNAJB6 / Fold change vs veh, DNAJB6 / RFU, CACNA2D3 / Fold change vs veh, CACNA2D3 / RFU, DTX4 / Fold change vs veh, DTX4 / RFU, TFCP2 / Fold change vs veh, TFCP2 / RFU, GMCL1 /// GMCL1P1 / Fold change vs veh, GMCL1 /// GMCL1P1 / RFU, AEBP2 / Fold change vs veh, AEBP2 / RFU, SNHG1 /// SNORD22 /// SNORD25 /// SNORD26 /// SNORD27 /// SNORD28 /// SNORD29 /// SNORD31 / Fold change vs veh, SNHG1 /// SNORD22 /// SNORD25 /// SNORD26 /// SNORD27 /// SNORD28 /// SNORD29 /// SNORD31 / Fold change (Aza/veh), C12orf56 (ProbeSet 11735607_a_at) / Fold change (ACY-1035/veh), C12orf56 (ProbeSet 11735607_a_at) / Fold change (Aza/veh), FGFR1OP (ProbeSet 11751329_s_at) / Fold change (ACY-1035/veh), FGFR1OP (ProbeSet 11751329_s_at) / Fold change (Aza/veh), VPS36 (ProbeSet 11739960_a_at) / Fold change (ACY-1035/veh), VPS36 (ProbeSet 11739960_a_at) / RFU SYPL1 (11715823_x_at) / Fold change /veh SYPL1 (11715823_x_at) / RFU IGFBP7 (11715501_s_at) / Fold change /veh IGFBP7 (11715501_s_at) / RFU REEP3 (11722064_at) / Fold change /veh REEP3 (11722064_at) / RFU IGLL1 (11728026_x_at) / Fold change /veh IGLL1 (11728026_x_at): dose or concentration left out as unconfirmed. To be noted: ProbeSet 11716891_at; LIST B.

Each structure is given as a SMILES string.

Consider `Nc1ncn([C@@H]2O[C@H](CO)[C@@H](O)[C@H]2O)c(=O)n1` [azacitidine], for which the “RFU, C9orf123” value was determined as 42.83 RFU.
